Data from ChEMBL document CHEMBL1201862, “PubChem BioAssay data set” (2004).
Calls of active or inactive are those of the source.

What was measured:
[1] = bead-based luminescence quenchers, dual-tagged ARNT – biochemical, AlphaScreen, cherry-pick, artefact control for ARNT-TACC3 interaction inhibitor project, dose response (AID 651705); type: functional;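 note: AlphaScreen bead proximity signal that flags compounds interfering with the detection technology; potency reflects signal decrease which marks the compound as an assay artifact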
[2] = target: T1, Interleukin-8 (Homo sapiens, UniProt P10145); test: Dose Response confirmation of uHTS small molecule hits for cystic fibrosis induced NFkb Inhibitors in a PAF-induced IL8 counterscreen.; type: functional; settings: read-out: IC50_Mean
T1 sequence (P10145 whole entry): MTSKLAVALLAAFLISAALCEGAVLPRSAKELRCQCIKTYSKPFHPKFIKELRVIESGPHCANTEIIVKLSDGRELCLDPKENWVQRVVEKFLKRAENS

[3] = target: Glucose-6-phosphate 1-dehydrogenase (Homo sapiens, UniProt P11413); test: inhibition of Homo sapiens G6PD, dose series – biochemical, fluorescence, selectivity assay for P. falciparum G6PD inhibitor project, dose response (AID 504792); type: functional
[4] = target: T2, Adenosylmethionine-8-amino-7-oxononanoate aminotransferase (Mycobacterium tuberculosis, UniProt P9WQ81); test: Mycobacterium tuberculosis BioA enzyme inhibitor Measured in Biochemical System Using Plate Reader - 2163-02_Inhibitor_Dose_CherryPick_Activity.; type: functional, Mycobacterium tuberculosis UT205
T2 sequence (P9WQ81 whole entry): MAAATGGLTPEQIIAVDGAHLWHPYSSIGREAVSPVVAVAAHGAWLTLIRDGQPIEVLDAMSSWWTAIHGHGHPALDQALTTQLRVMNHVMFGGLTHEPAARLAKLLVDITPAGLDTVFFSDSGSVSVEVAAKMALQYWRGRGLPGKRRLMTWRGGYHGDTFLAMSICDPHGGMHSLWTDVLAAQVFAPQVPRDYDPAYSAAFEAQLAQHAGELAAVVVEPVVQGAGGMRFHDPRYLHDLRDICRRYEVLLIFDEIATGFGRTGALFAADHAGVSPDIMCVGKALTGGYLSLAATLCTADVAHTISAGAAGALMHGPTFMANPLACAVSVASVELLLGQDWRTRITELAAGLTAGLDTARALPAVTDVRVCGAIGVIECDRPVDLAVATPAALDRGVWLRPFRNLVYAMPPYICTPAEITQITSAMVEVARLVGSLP

[5] = viability of uninfected HEp-2 cells – cell-based, HTS, cytotoxicity control for RSV inhibitor project, dose response (AID 2410); type: functional; settings: human respiratory syncytial virus
[6] = target: T3, Bcl-2-related protein A1 (Mus musculus, UniProt Q07440); type: functional;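 note: confirmatory dose–response counterscreen on Bfl-1, used to check hits from a UBC13 polyubiquitin inhibitor campaign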
T3 sequence (Q07440 whole entry): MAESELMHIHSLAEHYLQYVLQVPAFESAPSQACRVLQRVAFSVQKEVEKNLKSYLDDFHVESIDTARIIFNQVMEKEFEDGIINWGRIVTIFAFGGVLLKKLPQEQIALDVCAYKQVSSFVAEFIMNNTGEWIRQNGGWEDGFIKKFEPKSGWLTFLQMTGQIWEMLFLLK

[7] = target: T4, Ubiquitin-conjugating enzyme E2 N (Homo sapiens, UniProt P61088); type: functional
T4 sequence (P61088 whole entry): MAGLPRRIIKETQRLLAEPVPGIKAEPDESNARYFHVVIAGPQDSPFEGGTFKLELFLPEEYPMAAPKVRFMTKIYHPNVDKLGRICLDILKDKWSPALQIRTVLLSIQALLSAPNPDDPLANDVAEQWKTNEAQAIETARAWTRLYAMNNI

[8] = target: T4, Ubiquitin-conjugating enzyme E2 N; type: functional; remark: listed apart in the source
[9] = target: Mu-type opioid receptor (Homo sapiens, UniProt P35372); type: functional, cell-based;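 note: U2OS cells with beta-arrestin recruitment to OPRM1 by beta-gal complementation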
[10] = target: 5-hydroxytryptamine receptor 2A (Mus musculus, UniProt P35363); type: functional, cell-based;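 note: CHO-K1 cells with tagged receptor and beta-arrestin; agonist potency measured as compound-induced activation of the receptor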
[11] = viability of PTEN-deleted HCT116 cells – cell-based, HCT116 PTEN knockout, dose response (AID 1047); type: functional;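 note: HCT116 colon tumor cells with PTEN knocked out; cells exposed to compound for 60 hours before readout; potency for loss of cell viability measured by luminescence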
[12] = viability of HCT116 lacking mutant beta-catenin – cell-based, human colon tumor, dose response (AID 1045); type: functional;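 note: HCT116 colon tumor cells with beta catenin knocked out; cells exposed to compound for 60 hours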
[13] = target: Heat shock protein HSP 90-alpha (Homo sapiens, UniProt P07900); type: functional, organism-based
[14] = target: T5, Sentrin-specific protease 8 (Homo sapiens, UniProt Q96LD8); type: functional
T5 sequence (Q96LD8 whole entry): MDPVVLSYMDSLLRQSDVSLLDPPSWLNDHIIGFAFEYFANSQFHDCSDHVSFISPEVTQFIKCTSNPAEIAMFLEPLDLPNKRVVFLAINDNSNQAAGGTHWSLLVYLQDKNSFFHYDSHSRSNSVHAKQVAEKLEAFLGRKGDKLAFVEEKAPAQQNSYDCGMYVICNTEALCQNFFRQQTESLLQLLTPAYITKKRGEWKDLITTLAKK

[15] = target: T5, Sentrin-specific protease 8; type: functional; remark: listed apart in the source
[16] = system: HEK293; test: EBV LMP1 TES2 canonical NF-kB signalling blockers – cell-based, HEK293, luciferase, cherry-pick, dose response (AID 588343); type: functional; settings: Homo sapiens
[17] = target: Beta-galactosidase (Escherichia coli, UniProt Q8VNN2); test: PubChem AID 485352; type: functional
[18] = target: T6, Type-1 angiotensin II receptor (Homo sapiens, UniProt P30556); test: antagonism of angiotensin II type 1 receptor – cell-based, uHTS hits, selectivity assay for APJ receptor antagonist project, dose response (AID 463214); type: functional;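 note: antagonist potency against angiotensin II stimulated AT1 response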
T6 sequence (P30556 whole entry): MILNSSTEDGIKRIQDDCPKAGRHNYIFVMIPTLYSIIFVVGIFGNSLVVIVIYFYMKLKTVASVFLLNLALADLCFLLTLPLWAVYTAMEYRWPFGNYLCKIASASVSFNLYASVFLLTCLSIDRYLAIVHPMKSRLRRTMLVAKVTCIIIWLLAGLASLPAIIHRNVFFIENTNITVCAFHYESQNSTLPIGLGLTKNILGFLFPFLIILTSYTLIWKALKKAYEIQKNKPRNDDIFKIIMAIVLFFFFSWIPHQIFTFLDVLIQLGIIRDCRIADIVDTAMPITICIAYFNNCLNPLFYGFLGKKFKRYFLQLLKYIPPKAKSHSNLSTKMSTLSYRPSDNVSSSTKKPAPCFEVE

[19] = target: Cytochrome P450 2C19 (Homo sapiens, UniProt P33261); test: Cytochrome panel assay with activity outcomes. Panel member name: p450-cyp2c19 Compounds with AC50 equal or less than 10 uM are considered active; type: functional; settings: read-out: AC50
[20] = target: T7, Mitochondrial peptide methionine sulfoxide reductase (Bos taurus, UniProt P54149); test: Absorbance-based biochemical high throughput dose response assay for activators of Methionine sulfoxide reductase A (MsrA).; type: functional
T7 sequence (P54149 whole entry): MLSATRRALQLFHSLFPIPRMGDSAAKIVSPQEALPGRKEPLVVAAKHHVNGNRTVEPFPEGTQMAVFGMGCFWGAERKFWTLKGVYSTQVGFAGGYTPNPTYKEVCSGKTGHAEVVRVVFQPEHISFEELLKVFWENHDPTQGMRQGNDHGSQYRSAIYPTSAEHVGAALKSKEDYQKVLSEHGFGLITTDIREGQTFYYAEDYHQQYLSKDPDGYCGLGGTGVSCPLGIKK

[21] = target: Cytochrome P450 3A4 (Homo sapiens, UniProt P08684);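 note: CYP3A4 tested as one member of a cytochrome P450 panel screen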
[22] = target: Cytochrome P450 2C9 (Homo sapiens, UniProt P11712)
[23] = HPDE-C7 pancreatic duct cell viability loss – fluorescence, HTS (AID 430); type: functional, cell-based; settings: Homo sapiens
[24] = viability loss of HPDE-C7K cells – cell-based, fluorescence, HTS, primary screen (AID 431); type: functional; settings: Homo sapiens
[25] = reduction of Shn3 3'UTR-driven luciferase in osteoblasts – cell-based, Clone20 osteoblasts, firefly luciferase, cherry-picked, dose response (AID 624132); type: functional;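 note: firefly luciferase luminescence from reporter carrying the Shn3 3'UTR in osteoblasts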
[26] = loss of viability in HepG2 cells – cell-based, CellTiter-Glo, cherry-picked, cytotoxicity control for Shn3 inhibitor project, dose response (AID 624134); type: functional
[27] = non-specific 3'UTR reporter inhibition in Clone20-Shn3RL – cell-based, Renilla luciferase, cherry-picked, counter-screen for Shn3 inhibitor project, dose response (AID 624133); type: functional
[28] = target: Large T antigen (Simian virus 40, UniProt P03070); type: functional, Betapolyomavirus macacae;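 note: Confirmatory-stage PubChem screen for compounds that inhibit SV40 T antigen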
[29] = target: DNA dC->dU-editing enzyme APOBEC-3G (Homo sapiens, UniProt Q9HC16); test: Dose Response confirmation of small molecule APOBEC3G DNA Deaminase Inhibitors via a fluorescence-based single-stranded DNA deaminase assay. [Related pubchem assays (depositor defined):AID493012, AID493028]; type: functional
[30] = cells; type: functional
[31] = system: Vero; test: cells; type: functional, cell-based; settings: Chlorocebus sabaeus
[32] = system: Vero; test: cells; type: functional; settings: Chlorocebus sabaeus
[33] = NIH-3T3 fibroblast cytotoxicity, dose response, cytotoxicity control, cell-based, fluorescence, Alamar Blue, secondary assay (AID 2327); type: functional;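 note: NIH-3T3 mouse fibroblasts cultured with fluconazole at 8 µg/mL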
[34] = fluconazole-exposed Candida albicans growth modulators – fluorescence, retest, confirmation (AID 2467); type: functional, cell-based
[35] = HEK-293T viability loss after treatment – luminescence, T-cell screen hits, cytotoxicity control for TCR NF-kB inhibitor project, dose response (AID 489026); type: functional, cell-based;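 note: cells exposed to compound about 14 hours before the viability readout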
[36] = system: INS1; test: INS-1E survival protection against cytokine death – cell-based, luminescence, retest, dose response (AID 449756); type: functional; settings: Rattus norvegicus;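 note: cell death triggered by IL-1 beta plus TNF-alpha plus IFN-gamma mixture; protective hits raise ATP signal compared with cytokine alone wells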
[37] = target: T8, DNA repair protein RAD52 homolog (Homo sapiens, UniProt P43351); type: functional, biochemical
T8 sequence (P43351 whole entry): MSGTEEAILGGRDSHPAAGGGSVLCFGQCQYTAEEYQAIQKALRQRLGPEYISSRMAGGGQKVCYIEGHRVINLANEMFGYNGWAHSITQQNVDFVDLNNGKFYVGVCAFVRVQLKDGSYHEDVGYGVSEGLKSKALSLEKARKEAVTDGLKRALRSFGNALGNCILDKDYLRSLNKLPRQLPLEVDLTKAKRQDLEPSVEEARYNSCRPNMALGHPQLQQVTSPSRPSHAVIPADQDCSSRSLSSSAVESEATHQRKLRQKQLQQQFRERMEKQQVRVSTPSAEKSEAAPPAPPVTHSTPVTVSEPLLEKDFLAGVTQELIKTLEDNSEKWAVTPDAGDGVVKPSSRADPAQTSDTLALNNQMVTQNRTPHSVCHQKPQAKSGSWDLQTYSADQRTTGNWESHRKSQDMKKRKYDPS

Sequence of Glucose-6-phosphate 1-dehydrogenase (P11413 whole entry): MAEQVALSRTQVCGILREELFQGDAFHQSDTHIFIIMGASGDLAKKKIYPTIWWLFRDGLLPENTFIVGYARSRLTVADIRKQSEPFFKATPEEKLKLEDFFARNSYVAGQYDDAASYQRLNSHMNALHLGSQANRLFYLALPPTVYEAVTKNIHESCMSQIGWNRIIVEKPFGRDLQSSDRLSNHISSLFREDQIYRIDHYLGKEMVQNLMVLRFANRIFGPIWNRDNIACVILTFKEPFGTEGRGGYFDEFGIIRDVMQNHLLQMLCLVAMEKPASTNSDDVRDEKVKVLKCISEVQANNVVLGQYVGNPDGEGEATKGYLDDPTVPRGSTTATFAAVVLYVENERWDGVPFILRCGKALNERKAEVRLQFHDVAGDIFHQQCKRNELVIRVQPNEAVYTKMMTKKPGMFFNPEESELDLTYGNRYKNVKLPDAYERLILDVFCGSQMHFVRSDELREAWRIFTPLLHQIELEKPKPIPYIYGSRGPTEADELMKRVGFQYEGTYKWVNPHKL
Sequence of 5-hydroxytryptamine receptor 2A (P35363 whole entry): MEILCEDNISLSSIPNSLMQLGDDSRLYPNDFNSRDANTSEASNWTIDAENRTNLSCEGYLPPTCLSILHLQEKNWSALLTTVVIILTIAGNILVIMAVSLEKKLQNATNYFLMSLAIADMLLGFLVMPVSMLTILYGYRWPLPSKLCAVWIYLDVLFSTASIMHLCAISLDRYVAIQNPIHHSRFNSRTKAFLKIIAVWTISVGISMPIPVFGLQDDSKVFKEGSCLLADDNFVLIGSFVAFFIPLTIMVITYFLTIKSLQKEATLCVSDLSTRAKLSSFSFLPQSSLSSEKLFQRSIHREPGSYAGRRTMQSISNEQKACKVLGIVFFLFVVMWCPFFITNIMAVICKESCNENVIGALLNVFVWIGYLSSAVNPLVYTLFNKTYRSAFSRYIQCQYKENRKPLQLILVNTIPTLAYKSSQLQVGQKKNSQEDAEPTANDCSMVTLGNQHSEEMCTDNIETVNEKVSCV
Sequence of Mu-type opioid receptor (P35372 whole entry): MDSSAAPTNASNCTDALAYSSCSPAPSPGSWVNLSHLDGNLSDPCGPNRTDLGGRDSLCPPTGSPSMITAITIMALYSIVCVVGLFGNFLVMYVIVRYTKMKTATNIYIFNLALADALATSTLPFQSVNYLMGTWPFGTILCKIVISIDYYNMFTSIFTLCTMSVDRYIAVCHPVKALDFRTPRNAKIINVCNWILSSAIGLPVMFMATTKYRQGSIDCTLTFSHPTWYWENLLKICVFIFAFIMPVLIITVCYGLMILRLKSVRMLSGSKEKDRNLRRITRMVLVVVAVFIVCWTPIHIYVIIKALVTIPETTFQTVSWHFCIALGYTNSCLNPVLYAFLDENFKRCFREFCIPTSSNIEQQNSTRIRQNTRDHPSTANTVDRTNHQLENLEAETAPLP
Sequence of Large T antigen (P03070 whole entry): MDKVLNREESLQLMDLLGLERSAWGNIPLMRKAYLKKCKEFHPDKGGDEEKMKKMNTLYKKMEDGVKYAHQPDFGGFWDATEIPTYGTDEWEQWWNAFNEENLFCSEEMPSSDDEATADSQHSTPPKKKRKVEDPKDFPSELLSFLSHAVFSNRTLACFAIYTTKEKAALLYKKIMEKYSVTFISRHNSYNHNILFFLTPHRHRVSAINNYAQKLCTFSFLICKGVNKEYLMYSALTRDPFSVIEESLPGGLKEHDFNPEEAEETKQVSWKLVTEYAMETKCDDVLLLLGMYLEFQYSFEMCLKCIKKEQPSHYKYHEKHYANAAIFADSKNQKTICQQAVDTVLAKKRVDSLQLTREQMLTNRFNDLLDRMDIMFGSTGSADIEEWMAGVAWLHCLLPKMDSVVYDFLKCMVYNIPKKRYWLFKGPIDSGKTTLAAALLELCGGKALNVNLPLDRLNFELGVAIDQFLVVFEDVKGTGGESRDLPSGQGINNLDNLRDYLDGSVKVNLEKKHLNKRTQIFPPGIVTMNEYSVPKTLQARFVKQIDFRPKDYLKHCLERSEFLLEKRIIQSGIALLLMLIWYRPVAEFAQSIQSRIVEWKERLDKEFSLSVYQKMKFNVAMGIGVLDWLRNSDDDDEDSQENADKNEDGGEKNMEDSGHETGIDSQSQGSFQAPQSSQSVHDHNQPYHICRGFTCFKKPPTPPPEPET
Sequence of Cytochrome P450 2C9 (P11712 whole entry): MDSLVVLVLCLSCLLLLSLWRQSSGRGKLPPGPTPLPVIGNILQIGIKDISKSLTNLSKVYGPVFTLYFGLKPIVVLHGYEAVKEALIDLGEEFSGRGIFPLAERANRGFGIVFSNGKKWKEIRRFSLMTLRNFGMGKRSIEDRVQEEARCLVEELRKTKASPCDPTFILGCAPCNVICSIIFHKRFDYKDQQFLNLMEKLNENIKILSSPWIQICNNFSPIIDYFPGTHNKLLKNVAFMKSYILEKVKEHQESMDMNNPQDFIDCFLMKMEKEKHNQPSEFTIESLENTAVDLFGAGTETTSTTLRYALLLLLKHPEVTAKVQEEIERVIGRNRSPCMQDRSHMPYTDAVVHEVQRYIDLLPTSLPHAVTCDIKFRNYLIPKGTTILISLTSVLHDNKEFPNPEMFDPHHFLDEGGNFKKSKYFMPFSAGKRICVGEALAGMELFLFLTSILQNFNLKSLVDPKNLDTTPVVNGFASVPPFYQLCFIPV
Sequence of Cytochrome P450 2C19 (P33261 whole entry): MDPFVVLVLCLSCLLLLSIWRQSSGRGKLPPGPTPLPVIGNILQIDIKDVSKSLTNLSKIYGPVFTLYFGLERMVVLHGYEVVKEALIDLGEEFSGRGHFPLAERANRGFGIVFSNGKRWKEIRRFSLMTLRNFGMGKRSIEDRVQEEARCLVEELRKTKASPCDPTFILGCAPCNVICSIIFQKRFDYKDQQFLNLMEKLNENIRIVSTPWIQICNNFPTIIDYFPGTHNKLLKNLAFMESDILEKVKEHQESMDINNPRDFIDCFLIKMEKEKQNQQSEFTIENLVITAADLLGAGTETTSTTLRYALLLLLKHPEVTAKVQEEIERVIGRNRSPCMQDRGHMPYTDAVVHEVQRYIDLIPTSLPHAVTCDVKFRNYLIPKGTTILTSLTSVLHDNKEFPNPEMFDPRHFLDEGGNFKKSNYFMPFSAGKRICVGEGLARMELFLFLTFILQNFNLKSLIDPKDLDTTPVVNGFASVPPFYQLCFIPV
Sequence of DNA dC->dU-editing enzyme APOBEC-3G (Q9HC16 whole entry): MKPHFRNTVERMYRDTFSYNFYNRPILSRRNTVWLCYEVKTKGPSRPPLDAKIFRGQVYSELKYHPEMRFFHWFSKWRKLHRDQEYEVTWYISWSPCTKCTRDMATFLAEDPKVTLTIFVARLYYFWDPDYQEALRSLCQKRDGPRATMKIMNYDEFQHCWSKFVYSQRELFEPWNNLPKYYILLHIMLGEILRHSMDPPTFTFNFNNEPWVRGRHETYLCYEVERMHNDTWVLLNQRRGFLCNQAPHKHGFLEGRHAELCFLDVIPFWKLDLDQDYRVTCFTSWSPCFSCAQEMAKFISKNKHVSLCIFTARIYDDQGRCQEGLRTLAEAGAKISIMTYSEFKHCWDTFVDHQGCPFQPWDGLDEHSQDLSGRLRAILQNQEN
Sequence of Cytochrome P450 3A4 (P08684 whole entry): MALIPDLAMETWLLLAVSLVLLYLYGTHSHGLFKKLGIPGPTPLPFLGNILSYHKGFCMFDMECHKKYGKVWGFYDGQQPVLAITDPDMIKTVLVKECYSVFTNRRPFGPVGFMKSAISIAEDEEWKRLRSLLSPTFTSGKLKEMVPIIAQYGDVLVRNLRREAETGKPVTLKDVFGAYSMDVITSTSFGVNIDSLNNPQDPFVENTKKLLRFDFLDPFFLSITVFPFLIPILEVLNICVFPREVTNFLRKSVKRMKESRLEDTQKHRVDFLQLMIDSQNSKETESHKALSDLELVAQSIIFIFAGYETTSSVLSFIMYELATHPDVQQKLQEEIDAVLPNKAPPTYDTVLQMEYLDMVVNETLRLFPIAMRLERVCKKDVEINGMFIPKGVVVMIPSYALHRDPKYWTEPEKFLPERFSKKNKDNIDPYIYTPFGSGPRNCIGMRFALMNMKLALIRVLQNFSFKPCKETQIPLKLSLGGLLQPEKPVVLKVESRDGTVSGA
Sequence of Beta-galactosidase (Q8VNN2 whole entry): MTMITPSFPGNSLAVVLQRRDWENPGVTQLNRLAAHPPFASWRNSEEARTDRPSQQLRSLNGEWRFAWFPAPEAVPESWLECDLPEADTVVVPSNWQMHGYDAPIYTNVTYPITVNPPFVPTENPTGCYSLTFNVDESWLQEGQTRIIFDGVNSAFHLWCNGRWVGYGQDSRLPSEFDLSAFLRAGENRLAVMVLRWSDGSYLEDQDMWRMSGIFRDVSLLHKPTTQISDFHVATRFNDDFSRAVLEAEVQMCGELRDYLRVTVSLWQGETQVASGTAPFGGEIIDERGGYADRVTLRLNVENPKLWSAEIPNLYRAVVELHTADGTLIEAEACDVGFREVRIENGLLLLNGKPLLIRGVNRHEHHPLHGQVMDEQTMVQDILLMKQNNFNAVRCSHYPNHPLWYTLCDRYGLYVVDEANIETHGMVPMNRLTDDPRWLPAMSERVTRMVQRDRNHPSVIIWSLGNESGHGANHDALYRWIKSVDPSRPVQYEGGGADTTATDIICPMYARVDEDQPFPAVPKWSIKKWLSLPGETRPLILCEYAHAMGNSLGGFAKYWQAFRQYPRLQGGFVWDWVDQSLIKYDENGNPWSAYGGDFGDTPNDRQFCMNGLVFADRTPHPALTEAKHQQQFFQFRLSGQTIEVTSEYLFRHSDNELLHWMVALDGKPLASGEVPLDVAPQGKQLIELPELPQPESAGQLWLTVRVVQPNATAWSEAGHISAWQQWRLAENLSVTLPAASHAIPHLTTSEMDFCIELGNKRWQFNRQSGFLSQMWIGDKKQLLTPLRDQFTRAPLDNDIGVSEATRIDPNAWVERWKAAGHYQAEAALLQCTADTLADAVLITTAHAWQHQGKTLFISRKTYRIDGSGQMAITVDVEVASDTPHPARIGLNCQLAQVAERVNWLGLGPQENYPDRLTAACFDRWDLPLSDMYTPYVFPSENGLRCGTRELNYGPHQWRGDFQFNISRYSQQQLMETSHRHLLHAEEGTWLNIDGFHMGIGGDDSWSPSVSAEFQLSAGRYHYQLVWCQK

Structure (SMILES): CCOc1ccc(C(=O)CCNC(Cc2c[nH]cn2)C(=O)O)cc1 (stereo not drawn)
- AC50 [1]: 124 µM (active)

Structure (SMILES): CCn1c2ccccc2c2cc(/C=N/O)ccc21
- IC50 [2]: 7.06 µM (active)

Structure (SMILES): COc1cc(N)c2ncsc2c1
- IC50 [3]: > 80 µM (inactive)

Structure (SMILES): CC(=O)c1ccc(C(=O)N2CCCC(CO)(Cc3ccccc3C)C2)s1 (stereo not drawn)
- AC50 [4]: 4.14 µM (active)

Structure (SMILES): CC(=O)N1CC[C@@H]2[C@@H](CO)N(C)c3ccc(-c4ccccc4)cc3[C@@H]21
- AC50 [4]: 8.17 µM (active)

Structure (SMILES): CCc1ccc2nc(N(CCCN(C)C)C(=O)c3ccc(C(=O)c4ccccc4)cc3)sc2c1
- CC50 [5]: 20.5 µM (active)
- IC50 [6]: > 20 µM (inactive)
- IC50 [7]: 13.2 µM (active)
- IC50 [8]: 11.6 µM (active)

Structure (SMILES): COc1ccc(C2/C=C\CN(C(=O)C3CCCC3)CC(=O)N2Cc2ccc(F)cc2)cc1 (stereo not drawn)
- EC50 [9]: 92.5 µM (inactive)
- EC50 [10]: 76.1 µM (inactive)

Structure (SMILES): Cc1c(Cl)cccc1/N=C/c1ccc([N+](=O)[O-])s1
- EC50 [11]: 26.5 µM (active)
- EC50 [12]: 40.3 µM (active)
- AC50 [13]: 7.37 µM (active)
- IC50 [14]: 5.17 µM (active)
- IC50 [15]: 3.66 µM (active)

Structure (SMILES): Cc1ccc(NC(=O)CNCc2ccccn2)cc1S(=O)(=O)N(C)C
- AC50 [1]: 127 µM (active)

Structure (SMILES): COc1ccccc1CN1CCN(C(=O)c2ccco2)CC1
- EC50 [9]: 92.5 µM (inactive)
- EC50 [10]: 1.99 µM (active)

Structure (SMILES): Cc1ccc(C(=O)Nc2nnc(SCC(=O)N3CCCc4ccccc43)s2)cc1
- AC50 [16]: 1.3 µM (active)

Structure (SMILES): Cc1cc(C)nc(NNS(=O)(=O)c2c(F)cc(F)cc2Br)n1
- EC50 [17]: > 40 µM (inactive)
- IC50 [18]: 22.7 µM (not active)

Structure (SMILES): Cc1ccc(-c2cc[nH]c(=S)n2)cc1
- AC50 [19]: 14.1 µM (inconclusive)
- EC50 [20]: > 104 µM (inactive)
- AC50 [21]: 14.1 µM (inconclusive)
- AC50 [22]: 10 µM (inconclusive)

Structure (SMILES): CC1CCCN(c2ccc(C(=O)Nc3cccnc3)cc2[N+](=O)[O-])C1 (stereo not drawn)
- AC50 [4]: 1.11 µM (active)

Structure (SMILES): Fc1ccc2[nH]c3c(N4CCSCC4)ncnc3c2c1
- EC50 [23]: 13.4 µM (active)
- EC50 [24]: 13.3 µM (active)
- AC50 [16]: 1.5 µM (active)
- AC50 [25]: 2.76 µM (active)
- AC50 [26]: 30 µM (active)
- AC50 [27]: 2.6 µM (active)

Structure (SMILES): OCc1ccccc1SSc1ccccc1CO
- IC50 [28]: 11.4 µM (active)
- IC50 [3]: > 80 µM (inactive)
- IC50 [29]: 12.3 µM (active)
- EC50 [20]: > 104 µM (inactive)

Structure (SMILES): C[C@H](CO)N1C[C@H](C)[C@@H](CN(C)C(=O)Nc2ccc(C(F)(F)F)cc2)Oc2c(cccc2N(C)C)C1=O
- IC50 [3]: > 80 µM (inactive)

Structure (SMILES): Fc1ccc(-c2ccc(CNCc3ccccn3)o2)cc1Cl
- IC50 [30]: 4.34 µM (active)
- AC50 [1]: 88.6 µM (active)

Structure (SMILES): O=C(CNC(=O)c1cccc(S(=O)(=O)N2CCc3ccccc32)c1)Nc1ccccc1Br
- IC50 [31]: 16.9 µM (active)
- CC50 [32]: > 25 µM (active)

Structure (SMILES): CCCCCc1ccc(OCCCC[n+]2ccc(C)cc2)c(CCCCC)c1
- EC50 [33]: > 160 µM (inactive)
- EC50 [34]: 0.516 µM (active)
- IC50 [35]: 58 µM (inactive)
- AC50 [36]: 1.92 µM (active)
- AC50 [37]: 21.7 µM (active)

Structure (SMILES): CCNC(=O)C1(C)CCCN(Cc2ccc(-c3ccccc3)o2)C1 (stereo not drawn)
- IC50 [2]: > 79 µM (inactive)
